Entries after “also recorded” stand apart in the source; their conditions may differ.
How the values were obtained:
[1] = Partition coefficient between n-octanol and water or Tris buffer; format: physicochemical; settings: for logD: coligands Tricine-TPPTS
Experimental: Matrix metalloproteinase-targeted imaging agents known in the art suffer from poor solubility of their precursors and have blood clearance times that make them ill-suited for practical application. The partition coefficient (Log D) values of ^99mTc-1 and ^99mTc-RP805 were determined based on their proportional distribution between n-octanol and water or Tris buffer at pH 7.4. […] Compared with ^99mTc-RP805 and its precursor, the increased hydrophilicity of ^99mTc-1 (and 1) can in one aspect be ascribed to the introduction of arginine residue.

[2] = Blood kinetics and biodistribution in C57BL/6J mice; settings: mouse, in vivo; for blood pool activity: iv
Experimental: Biodistribution at 2 h post-injection (p.i.) and blood clearance were evaluated in C57Bl/6J mice injected with 16±5 MBq of ^99mTc-1 (n=6) or ^99mTc-RP805 (n=6). In vivo targeting to aneurysm and specificity of ^99mTc-1 was evaluated in high-fat fed apolipoprotein E-deficient mice, 4 weeks after carotid aneurysm induction through peri-adventitial application of CaCl2. The animals were injected with 31±14 MBq of ^99mTc-1 with (n=3) or without (n=4) pre-injection of non-labeled 1.

[3] = system: CaCl2-induced carotid aneurysm; assay: Quantitative autoradiography of carotid aneurysm, blocking study; format: in vivo, apoE−/− mice; settings: autoradiography at 2 h
Experimental: Arterial aneurysm was induced by exposing the left common carotid artery of apolipoprotein E-deficient (apoE^−/−) mice to calcium chloride. Briefly, 4- to 6-wk-old female apoE^−/− mice (n=96; Jackson Laboratory) were fed high-cholesterol chow ad libitum. After 1 wk, the carotid arteries were exposed by blunt-end dissection under anesthesia. The left common carotid artery just below the carotid bifurcation was adventitially exposed to a 10% solution of CaCl2 for 20 min. The opposite carotid artery was exposed to normal saline and served as a control for imaging studies (Razavian, et al., 2010, J Nucl Med. 51(7):1107-15).
For autoradiography, the specimens were mounted on a board and placed in contact with to a reusable phosphor screen (MultiSensitive Phosphor Screen, PerkinElmer) along with standards of known activity. The screen was scanned in a phosphor imager system (Typhoon Trio, GE Healthcare Life Sciences) at a pixel size of 25×25 μm and images were analyzed using the Fiji software. Tracer uptake was quantified using a standard curve and expressed a % injected dose (ID)/pixel.
The tissues were placed on a phosphor screen (MultiSensitive Phosphor Screen, PerkinElmer) along with standards of known activity. […]

[4] = system: suprarenal abdominal aorta (AAA); assay: microSPECT/CT imaging of AAA in angiotensin II-infused mice; format: in vivo, apoE−/− mice
Experimental: In addition, sixteen weeks-old male apoE^−/− (n=16) were infused with human angiotensin II (Ang II, 1000 ng/kg/min, Calbiochem), delivered by a subcutaneous osmotic minipump (Model 2004, Alzet) implanted under anesthesia (isoflurane 2%).
Animals were imaged using a dedicated high resolution small animal imaging system (X-SPECT, GammaMedica), using one mm low energy (for ^99mTc) pinhole collimators. The spatial resolution of this system for ^99mTc in tomographic images with a 1-mm pinhole collimator and 4 cm radius of rotation was 1.1 mm full-width half-maximum. Radiotracer (1 mCi for mice) was injected through an intravenous catheter. Anesthetized mice (with isoflurane) were placed in a fixed position under the camera. Three point sources of known activity (˜1 μCi) were placed in the field of view, but outside the body, to quantify tracer uptake and to verify the accuracy of image fusions. […]
After completion of microSPECT images CT imaging was performed (energy: 75 kV/280 μA, matrix: 512×512) to identify anatomical structure. […] Images were analyzed using Xeleris Functional Imaging Workstation (General Electric, Waukesha, Wis.). […] Activities of each organ was expressed as % ID using the point sources. […]
RNA was isolated from aortic tissue using GenElute Mammalian Total RNA Miniprep Kit (Sigma-Aldrich) and reverse-transcribed using QuantiTect Reverse Transcription Kit (Qiagen). […]

[5] = Radiochemical stability in mouse blood by radio-HPLC; format: in vitro ADME; settings: in vitro incubation at 37° C. up to 5 hours
Experimental: Tracers were incubated in blood (200 μL) with gentle agitation (Thermo mixer, 1000 rpm) at 37° C. for 4 h. At 0, 2, and 4 h time points, 40 μL of blood sample were collected and centrifuged at 4° C. (3000 rpm, 20 min). 10 μL of the supernatant (plasma) were collected and diluted in methanol (90 μL). The sample was then vortexed for 30 s at room temperature and centrifuged at 4° C. (3000 rpm, 15 min). 50 μL of the supernatant were concentrated, filtered and analysed by radioHPLC or LC-MS.
(§1) Radiolabeling quality control was performed by reverse phase radio-HPLC analysis (HPLC system 2489, Waters) with a flow rate of 1 mL/min using an analytical column (JUPITER® 4 μm Proteo 90 Å, Phenomenex) with gradients of solvent A (0.16% ammonium formate in aqueous solution) and solvent B (0.16% ammonium formate in 90% acetonitrile). The HPLC gradients were programmed as follows: 10% B for 2 min, 10-70% B in 5 min, 5 min 70% B and 70-90% B in 5 min. In vitro and in vivo stability of the tracer were analyzed by radio-HPLC following in vitro incubation in mouse blood at 37° C. for up to 5 hours, and from urine collected at 2 hours after tracer injection, respectively.

Aqueous solubility = format: physicochemical
[6] = In vivo radiochemical stability, radio-HPLC of urine; design: species or system C57BL/6J mouse; settings: urine collected 2 hours after intravenous injection
Experimental: as §1

[7] = Stability in saline / radiolabeling media by RP-HPLC; format: physicochemical; settings: room temperature
[8] = all tissues evaluated, but not the bile; 2 h
Experimental: To investigate biodistribution in apoE^−/− mice, animals at seven weeks after peri-adventitial application of CaCl2 or NaCl to carotid arteries were injected with 31±14 MBq (14±2 pg/kg) of ^99mTc-1, with (n=5) or without (n=6) pre-injection of an excess of the parent inhibitor 19 (23±8 ng/kg). Animals were kept under anesthesia for 60 min and blood samples were collected at various times post-injection. Tissue samples and body fluids were collected and weighed at 2 hours post-injection, and measured for their radioactivity by gamma-well counting (WIZARD2®, PerkinElmer). Data were expressed as percentage of injected dose (ID) per gram of tissue or mL of blood.
^99mTc-1 binding to carotid aneurysm and specificity in vivo were evaluated in apoE^−/− mice at seven weeks after peri-adventitial application of CaCl2 to left carotid arteries.

CC(C)C[C@H]1C(=O)N[C@H](C(=O)N[C@@H](CCCNC(=N)N)C(=O)NCCNC(=O)c2ccc(N[N]=[Tc]345([PH](c6cccc(S(=O)(=O)O)c6)(c6cccc(S(=O)(=O)O)c6)c6cccc(S(=O)(=O)O)c6)[O]CC(CO)(C[O]3)[N]4CC(=O)[O]5)nc2)Cc2ccc(cc2)OCCC[C@@H]1C(=O)NO [^99mTc-1] gave a logD ([1]; n-octanol/Tris buffer, Octanol/Tris (pH = 7.4)) of -4.4 ± 0.1, a logD ([1]; n-octanol/water, Octanol/water) of -4 ± 0.1 and a logP ([1]; n-octanol/water, read-out: Log P n-octanol/water) of -4 ± 0.1. The “hepatobiliary excretion: bile activity” value ([2]; 2 h) was 1.5±0.3 % ID/g, the “tissue uptake in control aorta” value ([2]; 2 h) was 6.0±1.4 % ID/g and the blood pool activity ([2]; 1 h) was 1.3±0.4 % ID/mL. For the same compound, the blood pool activity ([2]; 2 h) was 1.0±0.4 % ID/mL, the “decrease in aneurysm-to-aorta uptake ratio under blocking conditions” value [3] was 1.8 fold and the “decrease in carotid aneurysm tracer uptake on pre-injection of excess parent pan-MMP inhibitor” value ([3]; blocking vs no blocking) was 4.6 fold. For the same compound, the “left ventricle blood pool activity” value ([4]; AAA group) was 0.14±0.10 cpv/MBq, the “left ventricle blood pool activity” value ([4]; low remodeling group) was 0.12±0.08 cpv/MBq and the “radiochemical stability in mouse blood” value [5] was “high radiochemical stability; also recorded: good stability; also recorded: single peak; also recorded: radiochemically stable”. For the same compound, the “water solubility (in words)” value (Aqueous solubility) was “high water solubility”, the “in vivo radiochemical stability (urine)” value [6] was “high radiochemical stability” and the stability in saline [7] was “good stability”. The “tissue uptake by gamma well counting on pre-injection of parent pan-MMP inhibitor” value [8] was “significantly reduced”.
